# According to patent US11767323B2, “Tricyclic pyridone compounds as JAK2 V617F inhibitors” (Incyte Corporation, priority 2020, dated 2023):
# pIC50: −log10 of the molar value.
# What was measured:
# [1] = biological target: catalytic domain (JH1, amino acids 808-1132) of human JAK2 (Homo sapiens (Human), UniProt O60674); experiment: JAK2 HTRF Enzyme Activity Assay; format: biochemical; details: JAK2 0.015 nM, ATP (30 μM or 1 mM), 60 minutes at 25° C.
# Protocol: Example D. JAK2 HTRF Enzyme Activity Assay
# JAK2 enzyme activity assays utilize catalytic domain (JH1, amino acids 808-1132) of human JAK2 expressed as N-terminal His-tagged protein in a baculovirus expression system (BPS Bioscience, Catalog #40450). The assays was conducted in black 384-well polystyrene plates in a final reaction volume of 20 μL. JAK2 (0.015 nM) was incubated with compounds (100 nL serially diluted in DMSO) in the presence of ATP (30 μM or 1 mM) and 500 nM Biotin-labeled EQEDEPEGDYFEWLE (SEQ ID NO.: 1) peptide (BioSource International, custom synthesis) in assay buffer (50 mM Tris, pH=7.5, 10 mM MgCl2, 0.01% Brij-35, 0.1% BSA, 1 mM EGTA, 5% Glycerol and 5 mM DTT) for 60 minutes at 25° C. The reactions were stopped by the addition of 10 μL of detection buffer (50 mM Tris, pH 7.8, 0.5 mg/mL BSA, 150 mM NaCl), supplemented with EDTA, LANCE Eu-W1024 anti-phosphotyrosine (PY20), (PerkinElmer, Catalog #AD0067) and Streptavidin SureLight APC (PerkinElmer Catalog #CR130-100), for a final concentration of 15 mM, 1.5 nM and 75 nM, respectively. HTRF signals were read after 30 minutes incubation at room temperature on a PHERAstar FS plate reader (BMG LAB TECH). Data was analyzed with IDBS XLfit and GraphPad Prism 5.0 software using a four parameter dose response curve to determine IC50 for each compound.
# [2] = biological target: pseudo-kinase domain (JH2, amino-acids 536-812) of human V617F mutant JAK2 (Homo sapiens (Human), UniProt O60674, F794H/V617F/W659A/W777A); experiment: JAK2 LanthaScreen JH2-V617F Binding Assay; details: JAK2 JH2-V617F 0.26 nM, 50 nM tracer, 1 hour at 25° C.; read-out: JH2 BIND V617F IC50
# pseudo-kinase domain (JH2, amino-acids 536-812) of human V617F mutant JAK2, sequence (O60674 536-812 V617F/W659A/W777A/F794H): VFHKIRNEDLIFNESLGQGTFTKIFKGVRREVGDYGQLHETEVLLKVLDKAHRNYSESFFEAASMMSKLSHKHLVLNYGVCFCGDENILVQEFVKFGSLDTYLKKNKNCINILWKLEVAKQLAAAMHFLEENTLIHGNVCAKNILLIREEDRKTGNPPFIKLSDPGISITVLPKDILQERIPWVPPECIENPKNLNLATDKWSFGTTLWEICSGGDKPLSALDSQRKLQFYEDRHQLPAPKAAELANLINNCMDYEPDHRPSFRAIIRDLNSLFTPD
# Protocol: Example C. JAK2 LanthaScreen JH2-V617F Binding Assay
# (§1) JAK2 JH2-V617F binding assay utilizes pseudo-kinase domain (JH2, amino-acids 536-812 with 3 surface mutations W659A, W777A, F794H) of human V617F mutant JAK2 expressed as C-terminal His-Avi-tagged, biotinylated protein in a baculovirus expression system (BPS Bioscience, Catalog #79498). The assay was conducted in black 384-well polystyrene plates in a final reaction volume of 20 μL. JAK2 JH2-V617F (0.26 nM) was incubated with compounds (100 nL serially diluted in DMSO) in the presence of 50 nM Fluorescent JAK2-JH2 Tracer (MedChem Express Catalog #HY-102055) and 0.25 nM Streptavidin-Tb cryptate (Cisbio Part #610SATLB) in assay buffer (50 mM Tris, pH=7.5, 10 mM MgCl2, 0.01% Brij-35, 0.1% BSA, 1 mM EGTA, 5% Glycerol and 5 mM DTT). Non-specific binding was accessed in the presence of 2 mM ATP. After incubation for 1 hour at 25° C., LanthaScreen signals were read on a PHERAstar FS plate reader (BMG LABTECH). Data was analyzed with IDBS XLfit and GraphPad Prism 5.0 software using a four parameter dose response curve to determine IC50 for each compound.
# [3] = biological target: pseudo-kinase domain (JH2, amino-acids 536-812) of human Wild Type JAK2 (Homo sapiens (Human), UniProt O60674, F794H/W659A/W777A); experiment: JAK2 LanthaScreen JH2-WT Binding Assay; details: JAK2 JH2-WT 0.145 nM, 50 nM tracer, 1 hour at 25° C.; read-out: JH2 BIND WT IC50
# pseudo-kinase domain (JH2, amino-acids 536-812) of human Wild Type JAK2, sequence (O60674 536-812 W659A/W777A/F794H): as the sequence (O60674 536-812 V617F/W659A/W777A/F794H) above, with F82V counted along it
# Protocol: Example B. JAK2 LanthaScreen JH2-WT Binding Assay
# as §1, with “JH2-WT” for “JH2-V617F”, “Wild Type” for “V617F mutant”, “#79463).” for “#79498).”, “JH2-WT (0.145” for “JH2-V617F (0.26”, “LAB TECH).” for “LABTECH).”
# [4] = biological target: catalytic domain (JH1, amino acids 826-1132) of human JAK2 (Homo sapiens (Human), UniProt O60674); experiment: JAK2 LanthaScreen JH1 Binding Assay; details: JAK2 JH1 1.5 nM, 50 nM tracer, 2 hours at 25° C.; read-out: JH1 BIND IC50
# catalytic domain (JH1, amino acids 826-1132) of human JAK2, sequence (O60674 826-1132): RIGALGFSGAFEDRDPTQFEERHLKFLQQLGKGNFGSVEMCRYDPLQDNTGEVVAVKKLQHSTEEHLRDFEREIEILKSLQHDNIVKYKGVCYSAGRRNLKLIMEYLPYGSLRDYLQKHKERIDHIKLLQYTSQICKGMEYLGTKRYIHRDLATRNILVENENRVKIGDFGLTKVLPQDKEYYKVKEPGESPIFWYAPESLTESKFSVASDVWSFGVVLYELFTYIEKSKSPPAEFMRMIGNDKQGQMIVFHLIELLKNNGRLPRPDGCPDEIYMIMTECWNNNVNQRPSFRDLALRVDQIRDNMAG
# Protocol: Example A. JAK2 LanthaScreen JH1 Binding Assay
# JAK2 JH1 binding assay utilizes catalytic domain (JH1, amino acids 826-1132) of human JAK2 expressed as N-terminal FLAG-tagged, biotinylated protein in a baculovirus expression system (Carna Biosciences, Product #08-445-20N). The assay was conducted in black 384-well polystyrene plates in a final reaction volume of 20 μL. JAK2 JH1 (1.5 nM) was incubated with compounds (100 nL serially diluted in DMSO) in the presence of 50 nM Fluorescent JAK2-JH1 Tracer and 0.5 nM Streptavidin-Tb cryptate (Cisbio Part #610SATLB) in assay buffer (50 mM Tris, pH=7.5, 10 mM MgCl2, 0.01% Brij-35, 0.1% BSA, 1 mM EGTA, 5% Glycerol and 5 mM DTT). Non-specific binding was accessed in the presence of 2 mM ATP. After incubation for 2 hours at 25° C., LanthaScreen signals were read on a PHERAstar FS plate reader (BMG LABTECH). Data was analyzed with IDBS XLfit and GraphPad Prism 5.0 software using a four parameter dose response curve to determine IC50 for each compound.
# catalytic domain (JH1, amino acids 808-1132) of human JAK2, sequence (O60674 808-1132): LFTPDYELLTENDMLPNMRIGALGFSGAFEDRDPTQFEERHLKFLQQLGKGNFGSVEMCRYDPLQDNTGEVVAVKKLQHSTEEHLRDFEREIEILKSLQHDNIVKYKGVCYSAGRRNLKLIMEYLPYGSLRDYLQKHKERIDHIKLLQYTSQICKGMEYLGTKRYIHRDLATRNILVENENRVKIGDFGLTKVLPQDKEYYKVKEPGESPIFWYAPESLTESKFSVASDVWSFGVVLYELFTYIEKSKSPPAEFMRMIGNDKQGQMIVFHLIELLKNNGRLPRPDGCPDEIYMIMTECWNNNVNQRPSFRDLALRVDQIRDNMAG
Structure (SMILES),pIC50 [1],pIC50 [2],pIC50 [3],pIC50 [4]
"COC1CCC(c2c(-c3cc(C)no3)c(=O)n(C)c3cnc4[nH]c(-c5cnn(C)c5)cc4c23)CC1 (stereo not drawn) [Example 22, 9-(4-Methoxycyclohexyl)-6-methyl-2-(1-methyl-1H-pyrazol-4-yl)-8-(3-methylisoxazol-5-yl)-3,6-dihydro-7H-pyrrolo[3,2-f][1,7]naphthyridin-7-one]",6.30 to 7.00,≥ 7.00,≥ 7.00,6.30 to 7.00
"Cc1cc(-c2c(-c3ccc(-c4cnn(C)c4CO)cc3)c3c4cc(-c5cnn(C)c5)[nH]c4ncc3n(C)c2=O)on1 [Example 32, 9-(4-(5-(Hydroxymethyl)-1-methyl-1H-pyrazol-4-yl)phenyl)-6-methyl-2-(1-methyl-1H-pyrazol-4-yl)-8-(3-methylisoxazol-5-yl)-3,6-dihydro-7H-pyrrolo[3,2-f][1,7]naphthyridin-7-one]",6.30 to 7.00,≥ 7.00,≥ 7.00,6.30 to 7.00
"Cc1cc(=O)[nH]c2cnc3[nH]c(-c4ccc(CN5CCC(S(C)(=O)=O)CC5)cc4)cc3c12 [Example 17, 9-Methyl-2-(4-((4-(methylsulfonyl)piperidin-1-yl)methyl)phenyl)-3,6-dihydro-7H-pyrrolo[3,2-f][1,7]naphthyridin-7-one]",5.00 to 6.00,5.00 to 6.00,5.00 to 6.00,5.00 to 6.00
"COc1ccc(-c2c(C)c3c4cc(-c5ccc(CN6CCC(S(C)(=O)=O)CC6)cc5)[nH]c4ncc3n(C)c2=O)cc1 [Example 12, 8-(4-Methoxyphenyl)-6,9-dimethyl-2-(4-((4-(methylsulfonyl)piperidin-1-yl)methyl)phenyl)-3,6-dihydro-7H-pyrrolo[3,2-f][1,7]naphthyridin-7-one]",≥ 7.00,≥ 7.00,≥ 7.00,6.30 to 7.00
"CN(C)C(=O)c1ccc(-c2c(-c3cnn(C)c3)[nH]c3ncc4c(cc(NC5CCC(CC#N)CC5)c(=O)n4C)c23)cc1 (stereo not drawn) [Example 38, 4-(8-((4-(cyanomethyl)cyclohexyl)amino)-6-methyl-2-(1-methyl-1H-pyrazol-4-yl)-7-oxo-6,7-dihydro-3H-pyrrolo[3,2-f][1,7]naphthyridin-1-yl)-N,N-dimethylbenzamide]",≥ 7.00,≥ 7.00,≥ 7.00,6.30 to 7.00
"COc1ccc(-c2c(-c3cnn(C)c3)[nH]c3ncc4c(cc(C(=O)N(C)C)c(=O)n4C)c23)cc1 [Example 42, 1-(4-Methoxyphenyl)-N,N,6-trimethyl-2-(1-methyl-1H-pyrazol-4-yl)-7-oxo-6,7-dihydro-3H-pyrrolo[3,2-f][1,7]naphthyridine-8-carboxamide]",5.00 to 6.00,≥ 7.00,≥ 7.00,5.00 to 6.00
"Cc1c(-c2ccc(C#N)cc2)c(=O)n(C)c2cnc3[nH]c(-c4ccc(CN5CCC(S(C)(=O)=O)CC5)cc4)cc3c12 [Example 13, 4-(6,9-Dimethyl-2-(4-((4-(methylsulfonyl)piperidin-1-yl)methyl)phenyl)-7-oxo-6,7-dihydro-3H-pyrrolo[3,2-f][1,7]naphthyridin-8-yl)benzonitrile]",6.30 to 7.00,≥ 7.00,≥ 7.00,6.30 to 7.00
"Cc1c(-c2ccc(-n3cnnn3)cc2)c(=O)[nH]c2cnc3[nH]c(-c4ccc(CN5CCC(S(C)(=O)=O)CC5)cc4)cc3c12 [Example 7, 8-(4-(1H-Tetrazol-1-yl)phenyl)-9-methyl-2-(4-((4-(methylsulfonyl)piperidin-1-yl)methyl)phenyl)-3,6-dihydro-7H-pyrrolo[3,2-f][1,7]naphthyridin-7-one]",5.00 to 6.00,5.00 to 6.00,6.30 to 7.00,5.00 to 6.00
"Cc1cc(-c2c(-c3ccc(-c4cnn(C)c4C)cc3)c3c4cc(-c5cnn(C)c5)[nH]c4ncc3n(C)c2=O)on1 [Example 31, 9-(4-(1,5-Dimethyl-1H-pyrazol-4-yl)phenyl)-6-methyl-2-(1-methyl-1H-pyrazol-4-yl)-8-(3-methylisoxazol-5-yl)-3,6-dihydro-7H-pyrrolo[3,2-f][1,7]naphthyridin-7-one]",6.00 to 6.30,≥ 7.00,≥ 7.00,6.00 to 6.30
"Cc1c(-c2ccc(C(=O)O)cc2)c(=O)n(C)c2cnc3[nH]c(-c4ccc(CN5CCC(S(C)(=O)=O)CC5)cc4)cc3c12 [Example 8, 4-(6,9-Dimethyl-2-(4-((4-(methylsulfonyl)piperidin-1-yl)methyl)phenyl)-7-oxo-6,7-dihydro-3H-pyrrolo[3,2-f][1,7]naphthyridin-8-yl)benzoic acid]",6.30 to 7.00,≥ 7.00,≥ 7.00,6.30 to 7.00
"CS(=O)(=O)C1CCN(Cc2ccc(-c3cc4c(ncc5[nH]c(=O)c(-c6ccc(C(=O)O)cc6)cc54)[nH]3)cc2)CC1 [Example 2, 4-(2-(4-((4-(Methylsulfonyl)piperidin-1-yl)methyl)phenyl)-7-oxo-6,7-dihydro-3H-pyrrolo[3,2-f][1,7]naphthyridin-8-yl)benzoic acid]",< 5.00,≥ 7.00,≥ 7.00,< 5.00
"COCc1ccc(-c2c(-c3cc(C)no3)c(=O)n(C)c3cnc4[nH]c(-c5cnn(C)c5)cc4c23)cc1 [Example 27, 9-(4-(Methoxymethyl)phenyl)-6-methyl-2-(1-methyl-1H-pyrazol-4-yl)-8-(3-methylisoxazol-5-yl)-3,6-dihydro-7H-pyrrolo[3,2-f][1,7]naphthyridin-7-one]",6.30 to 7.00,≥ 7.00,≥ 7.00,6.30 to 7.00
